Results: publication PMC4850449, “Bufexamac ameliorates LPS-induced acute lung injury in mice by targeting LTA4H” (Scientific Reports, 2016)

Molecular target: T1, LTA4H (leukotriene A4 hydrolase) (Homo sapiens, UniProt P09960)
T1 sequence (P09960 2-611): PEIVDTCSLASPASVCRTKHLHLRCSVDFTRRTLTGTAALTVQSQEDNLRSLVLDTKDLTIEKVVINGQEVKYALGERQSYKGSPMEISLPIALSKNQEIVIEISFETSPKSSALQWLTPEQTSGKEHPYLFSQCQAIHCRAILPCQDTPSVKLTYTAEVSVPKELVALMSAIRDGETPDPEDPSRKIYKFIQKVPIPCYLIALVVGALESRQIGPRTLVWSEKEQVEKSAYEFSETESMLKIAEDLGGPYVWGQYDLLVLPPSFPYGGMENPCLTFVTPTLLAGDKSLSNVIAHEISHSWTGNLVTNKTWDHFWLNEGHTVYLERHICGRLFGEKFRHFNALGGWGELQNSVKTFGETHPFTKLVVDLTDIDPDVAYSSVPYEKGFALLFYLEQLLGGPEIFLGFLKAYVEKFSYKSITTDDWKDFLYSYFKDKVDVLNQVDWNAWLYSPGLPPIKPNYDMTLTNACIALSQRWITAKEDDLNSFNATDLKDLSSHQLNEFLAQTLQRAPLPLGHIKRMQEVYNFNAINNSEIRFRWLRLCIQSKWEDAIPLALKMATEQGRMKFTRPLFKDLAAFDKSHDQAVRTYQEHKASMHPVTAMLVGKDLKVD
Assay: X-ray co-crystal structure ([…] Å); purified enzyme inhibition (epoxide hydrolase IC50 […], aminopeptidase IC50 […])
Type: biochemical

IC50: 11.6 µM
SMILES: CCCCOc1ccc(CC(=O)NO)cc1 [Bufexamac]
